Among the data in patent publication US20110230472A1, “RING-FUSED AZOLE DERIVATIVE HAVING PI3K-INHIBITING ACTIVITY” (Shionogi & Co., Ltd., priority 2008, published 2011) are inhibition values, retold here.

Bounds are passed on as bounds.

PI-3 kinase γ, sequence (P48736 whole entry): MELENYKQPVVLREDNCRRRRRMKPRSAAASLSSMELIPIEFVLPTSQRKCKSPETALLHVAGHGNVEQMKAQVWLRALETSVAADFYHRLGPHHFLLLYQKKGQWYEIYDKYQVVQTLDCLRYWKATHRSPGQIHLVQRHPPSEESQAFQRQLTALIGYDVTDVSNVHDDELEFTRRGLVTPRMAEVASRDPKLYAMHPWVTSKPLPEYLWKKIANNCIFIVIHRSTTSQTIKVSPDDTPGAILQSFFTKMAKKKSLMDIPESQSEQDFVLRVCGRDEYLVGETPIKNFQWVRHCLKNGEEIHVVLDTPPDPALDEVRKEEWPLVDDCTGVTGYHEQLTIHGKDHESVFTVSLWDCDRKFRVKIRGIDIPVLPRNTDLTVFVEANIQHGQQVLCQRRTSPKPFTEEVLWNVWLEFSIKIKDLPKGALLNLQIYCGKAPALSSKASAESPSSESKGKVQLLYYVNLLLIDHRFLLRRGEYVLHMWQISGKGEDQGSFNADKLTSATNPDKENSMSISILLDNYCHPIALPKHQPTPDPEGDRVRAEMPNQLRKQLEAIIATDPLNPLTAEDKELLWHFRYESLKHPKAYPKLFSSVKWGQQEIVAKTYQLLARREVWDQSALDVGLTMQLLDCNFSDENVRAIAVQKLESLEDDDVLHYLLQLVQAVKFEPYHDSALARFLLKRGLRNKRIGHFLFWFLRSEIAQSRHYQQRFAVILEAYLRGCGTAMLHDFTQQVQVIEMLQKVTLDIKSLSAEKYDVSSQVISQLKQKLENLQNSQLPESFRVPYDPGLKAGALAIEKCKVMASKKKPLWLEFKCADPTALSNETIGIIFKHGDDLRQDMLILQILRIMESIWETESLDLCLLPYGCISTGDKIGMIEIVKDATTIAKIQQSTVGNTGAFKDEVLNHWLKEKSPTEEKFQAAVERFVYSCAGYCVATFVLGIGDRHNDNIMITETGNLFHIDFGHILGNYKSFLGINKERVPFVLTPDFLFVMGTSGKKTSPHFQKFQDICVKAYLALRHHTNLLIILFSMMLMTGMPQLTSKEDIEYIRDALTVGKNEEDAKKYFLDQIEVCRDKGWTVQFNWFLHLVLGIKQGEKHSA

The first experiment addresses PI-3 kinase γ (Homo sapiens, UniProt P48736). Nature of the experiment: PI3Kγ inhibitory activity, PI3-kinase HTRF assay (inhibition ratio). The note with it: 0.5 h; PI3Kγ, compound at 50 μM. Format: biochemical. The method, then:
The PI3Kγ inhibitory activity of a compound was evaluated using PI3-kinase HTRF™ assay (Millipore) according to the following procedure:
To each well of a testing plate, 5 μL of a compound solution containing 10% DMSO (200 μmol/L or 40 μmol/L as the concentration of the compound), 5 μL of a substrate solution (40 μmol/L phosphatidylinositol (4,5)-bisphosphate, 20 mmol/L MgCl2, 10 mmol/L DTT), and 5 μL of a enzyme solution (80 μg/mL PI-3 kinase γ, 10 mmol/L MgCl2, 5 mmol/L DTT) were added, and then allowed to stand for 10 minutes.
Then, 5 μL of a reaction solution (40 μmol/L ATP, 10 mmol/L MgCl2, 5 mmol/L DTT) was added thereto. After reacting for 30 minutes at room temperature, 5 μL of a solution containing EDTA and biotinylated phosphatidylinositol (3,4,5)-triphosphate were added to quench the reaction.
5 μL of a detection reagent containing a europium-labeled anti-GST antibody, the GST-tagged PH domain, and allophycocyanin-labeled streptavidin was added thereto. After 18 hours, HTRF (excitation wavelength: 330 nm, measured wavelengths: 620 nm and 665 nm) was measured.
HTRF ratio was defined as the value obtained by dividing the amount of fluorescence obtained at the measured wavelength 665 nm by the amount of fluorescence obtained at 620 nm. The HTRF ratio in the absence of a compound was defined as 100% activity and the HTRF ratio in the absence of PI-3 kinase γ was defined as 0% activity to calculate an inhibition ratio which was defined as the PI3Kγ inhibitory activity of a compound at 50 μmol/L or 10 μmol/L.
A general note: Time-resolved FRET reads energy transfer from a long-lived donor to a nearby acceptor.
As usually defined, the inhibition is the relative decrease from the control value, in per cent. As for `CNC(=O)Nc1nc2c(s1)CN(c1cc(Oc3ccccc3)nc(OCCCOCc3ccccc3)n1)CC2` [Compound I-232], the inhibition at 50 µM is 76%. Same read-out and setting: the result for `CNC(=O)Nc1cc2n(n1)CCN2c1ccc2ccccc2c1` [Compound I-176] reads not below 95%; that for `CNC(=O)Nc1cc2n(n1)CCN2c1cc(Br)cc(C(=O)NC(C)(C)C)c1` [Compound I-180], not below 95%; that for `CNC(=O)Nc1nc2c(s1)CN(c1cc(C(=O)NC)nc(Cl)n1)CC2` [Compound I-119], not below 95%.

On to `CC(C)(C)OC(=O)CCNC(=O)Nc1cc2n(n1)CCN2c1cccc(Cl)c1` [Compound I-212], for which the inhibition at 50 µM was found to be 80%. Same read-out and setting: the result for `COc1cc(N2CCc3nc(NC(=O)NCCC(=O)N4CCOCC4)sc3C2)nc(OC)n1` [Compound I-207] reads not below 95%.

On to `CNC(=O)Nc1cc2n(n1)CCN2c1cc(Br)cc(C(=O)NC)c1` [Compound I-179], for which the inhibition at 50 µM is not below 95%. Still for that read-out and setting: the result for `COc1cc(N2CCc3nc(NC(=O)[C@@H](O)c4ccccc4)sc3C2)nc(OC)n1` [Compound I-258] reads 92%; that for `O=C(Nc1cc2n(n1)CCN2c1cccc(Cl)c1)c1nccs1` [Compound I-245], 76%.

For the compound `CNC(=O)Nc1cc2n(n1)CCN2c1cc(Br)cc(C(=O)Nc2cccc(C(=O)OC(C)(C)C)c2)c1` [Compound I-175], the inhibition at 50 µM was found to be 94%. The same measure, in the same setting: as for `CNC(=O)Nc1cc2n(n1)CCN2c1ccncc1` [Compound I-141], the figure is not below 95%; as for `CNC(=O)Nc1cc2n(n1)CCN2c1ccc(C(=O)N(C)C)s1` [Compound I-226], not below 95%.

Consider `O=C(NCCC(=O)N1CCOCC1)Nc1cc2n(n1)CCN2c1cccc(Cl)c1` [Compound I-218], for which the inhibition at 50 µM is not below 95%. Still for that read-out and setting: as for `CNC(=O)Nc1cc2n(n1)CCN2c1nc(C)c(C(=O)O)s1` [Compound I-201], the figure is not below 95%; as for `CNC(=O)Nc1nc2c(s1)CN(c1cc(OC)nc(OC)n1)CC2` [Compound I-107], not below 95%; as for `CNC(=O)Nc1cc2n(n1)CCN2c1cc(CCc2ccccc2)cc(C(=O)N2CCOCC2)c1` [Compound I-260], 93%. Regarding `CC(C)(C)OC(=O)N1CCc2nc(NC(=O)Nc3cccc(Cl)c3)sc2C1` [Compound I-117], the inhibition at 50 µM amounted to 76%. Still for that read-out and setting: the result for `CCOC(=O)c1ccc(N2CCn3nc(NC(=O)NC)cc32)cc1` [Compound I-85] reads not below 95%. Same read-out and setting: as for `O=C(Nc1cc2n(n1)CCN2c1cccc(Cl)c1)c1cnco1` [Compound I-221], the figure is not below 95%; as for `CNC(=O)Nc1cc2n(n1)CCN2c1cc(C(=O)OC)cc(-c2ccccc2)c1` [Compound I-161], not below 95%. On the same count and under the same terms, the result for `CNC(=O)Nc1cc2n(n1)CCN(c1cccnc1)C2` [Compound I-86] reads 90%. In the case of `CNC(=O)Nc1cc2n(n1)CCN2c1cc(Br)cc(C(=O)N2CCOCC2)c1` [Compound I-173], the inhibition at 50 µM is not below 95%. The same measure, in the same setting: the result for `CNC(=O)Nc1cc2n(n1)CCN2c1cc(C(=O)N2CCOCC2)cc(-c2cnc(N)nc2)c1` [Compound I-209] reads not below 95%. Still for that read-out and setting: the result for `CNC(=O)Nc1cc2n(n1)CCN2c1ccc(F)c(C(=O)O)c1` [Compound I-189] reads not below 95%. On the same count and under the same terms, as for `CNC(=O)Nc1nc2c(s1)CN(c1cc(Oc3ccccc3)nc(O)n1)CC2` [Compound I-151], the figure is 80%; as for `COc1ccc(Nc2cc3n(n2)CCN3C(=O)c2ccccc2)cc1` [Compound I-4], not below 95%; as for `CNC(=O)Nc1cc2n(n1)CCN2c1ccc(F)c(C(=O)OC(C)(C)C)c1` [Compound I-184], not below 95%. `CNC(=O)Nc1nc2c(s1)CN(c1cc(C(=O)NCCO)nc(Cl)n1)CC2` [Compound I-170]: the inhibition at 50 µM was not below 95%. Same read-out and setting: the result for `CNC(=O)Nc1nc2c(s1)CN(c1cc(C(=O)O)nc(Cl)n1)CC2` [Compound I-101] reads not below 95%; that for `CNC(=O)Nc1nc2c(s1)CN(c1ccnc(Cl)n1)CC2` [Compound I-94], not below 95%; that for `CNC(=O)Nc1cc2n(n1)CCN2c1ccc(C(=O)N(C)C)cc1` [Compound I-169], not below 95%.

Consider `CCOC(=O)c1sc(N2CCn3nc(NC(=O)NC)cc32)nc1C` [Compound I-196], for which the inhibition at 50 µM turned out to be 79%.

The same experiment, now with this note: 0.5 h; compound at 10 μmol/L.
In the case of `CC(C)CC(=O)Nc1ncc(C(=O)Nc2cc3n(n2)CCN3c2ccc3c(c2)CCN(C)C3=O)s1` [Compound I-533], the inhibition at 10 µM stood at 95%. On the same count and under the same terms, the result for `CN1CCc2cc(N3CCn4nc(NC(=O)Cc5ccc(F)cc5)cc43)ccc2C1=O` [Compound I-342] reads 92%. As for `CN1CCc2cc(N3CCn4nc(NC(=O)c5ccc(S(C)(=O)=O)s5)cc43)ccc2C1=O` [Compound I-344], the inhibition at 10 µM stood at 80%. In the case of `COc1cc(N2CCc3nc(NC(=O)Nc4ccc(C(C)(C)C)cc4)sc3C2)nc(OC)n1` [Compound I-289], the inhibition at 10 µM came out at 90%. The same measure, in the same setting: as for `COc1nc(Cl)cc(N2CCc3nc(NC(C)=O)sc3C2)n1` [Compound I-334], the figure is 88%; as for `COc1cc(N2CCc3nc(NC(=O)Nc4ccccn4)sc3C2)nc(OC)n1` [Compound I-302], 85%.

For the compound `CN1CCc2cc(N3CCn4nc(NC(=O)c5csc(C(=O)OC(C)(C)C)c5)cc43)ccc2C1=O` [Compound I-413], the inhibition at 10 µM stood at 87%. Still for that read-out and setting: the result for `O=C(Nc1cc2n(n1)CCN2c1ccc2cnccc2c1)OCc1ccccc1` [Compound I-291] reads not below 95%; that for `CN1CCc2cc(N3CCn4nc(NC(=O)c5ccc(C(=O)O)s5)cc43)ccc2C1=O` [Compound I-391], not below 95%; that for `CCCNC(=O)Cc1cc(C(=O)Nc2cc3n(n2)CCN3c2ccc3c(c2)CCN(C)C3=O)cs1` [Compound I-496], not below 95%. Still for that read-out and setting: the result for `CC(C)NC(=O)c1ccccc1NC(=O)Nc1nc2c(s1)CN(C(=O)OCc1ccccc1)CC2` [Compound I-441] reads 88%. As to `CC(C)NC(=O)c1cc(C(=O)Nc2cc3n(n2)CCN3c2ccc3c(c2)CCN(C)C3=O)cs1` [Compound I-419], the inhibition at 10 µM was 83%.

As to `CCCCOc1ccc(C(=O)Nc2cc3n(n2)CCN3c2ccc3c(c2)CCN(C)C3=O)cc1` [Compound I-477], the inhibition at 10 µM came to 82%. The same measure, in the same setting: the result for `COc1ccc(C(=O)N2CCc3nc(NC(=O)Nc4ccccc4C(=O)NC(C)C)sc3C2)cc1` [Compound I-483] reads not below 95%; that for `CCCOc1ccc(C(=O)Nc2cc3n(n2)CCN3c2ccc3c(c2)CCN(C)C3=O)cc1` [Compound I-476], 94%; that for `CN1CCc2cc(N3CCn4nc(NC(=O)c5cnc(NC(=O)OC(C)(C)C)o5)cc43)ccc2C1=O` [Compound I-376], not below 95%. Same read-out and setting: the result for `CC(C)NC(=O)c1ccccc1NC(=O)Nc1nc2c(s1)CN(C(=O)c1cccc(Cl)c1)CC2` [Compound I-511] reads 75%; that for `CN1CCc2cc(N3CCn4nc(NC(=O)c5cccc(F)c5)cc43)ccc2C1=O` [Compound I-464], not below 95%. Consider `COc1cc(N2CCc3nc(NC(=O)Nc4ccsc4)sc3C2)nc(OC)n1` [Compound I-297], for which the inhibition at 10 µM was 91%. Turning to `Cc1ccc(C(=O)N2CCc3nc(NC(=O)Nc4ccccc4C(=O)NC(C)C)sc3C2)cc1` [Compound I-515], the inhibition at 10 µM turned out to be 85%. The same measure, in the same setting: as for `CC(C)NC(=O)Cc1cc(C(=O)Nc2cc3n(n2)CCN3c2ccc3c(c2)CCN(C)C3=O)cs1` [Compound I-495], the figure is not below 95%; as for `CC(C)CCOc1ccc(C(=O)Nc2cc3n(n2)CCN3c2ccc3c(c2)CCN(C)C3=O)cc1` [Compound I-551], 84%; as for `CN1CCc2cc(N3CCn4nc(NC(=O)c5cc6cccnc6[nH]5)cc43)ccc2C1=O` [Compound I-385], 91%. As to `CN1CCc2cc(N3CCn4nc(NC(=O)c5cccc(OC(C)(C)C(=O)O)c5)cc43)ccc2C1=O` [Compound I-474], the inhibition at 10 µM is not below 95%. Same read-out and setting: as for `CNC(=O)Nc1nc2c(s1)CN(c1cc(N(C)C)nc(OC)n1)CC2` [Compound I-362], the figure is not below 95%.

Consider `COc1cc(N2CCc3nc(NC(=O)Nc4cccc(C(=O)OC(C)(C)C)c4)sc3C2)nc(OC)n1` [Compound I-321], for which the inhibition at 10 µM is 95%. Same read-out and setting: as for `COCCNC(=O)c1ccc(C(=O)Nc2cc3n(n2)CCN3c2ccc3c(c2)CCN(C)C3=O)s1` [Compound I-410], the figure is not below 95%.

Staying with this experiment, now noted: 0.5 h; compound at 50 μmol/L.
In the case of `CN1CCc2cc(N3CCn4nc(NC(=O)c5csc6ccccc56)cc43)ccc2C1=O` [Compound I-373], the inhibition at 50 µM came out at 82%. Same read-out and setting: the result for `CN1CCc2cc(N3CCn4nc(NC(=O)CC5CCN(C(=O)OC(C)(C)C)C5)cc43)ccc2C1=O` (centres unmarked) [Compound I-351] reads not below 95%; that for `CC(=O)Nc1cc2n(n1)CCN2c1ccc2c(c1)CCN(C(=O)OC(C)(C)C)C2` [Compound I-301], not below 95%.
